For data set [1], the target named is T1, Neuronal acetylcholine receptor; alpha4/beta2 (Rattus norvegicus, UniProt P09483+P12390). Briefly: In vivo receptor occupancy at alpha4beta2 nAChR in Wistar rat assessed as brain concentration pretreated for 15 mins followed by non radiolabelled ZW-104 tracer treatment and measured after 45 mins by LC-MS/MS analysis. It counts as functional, organism-based.

Data set [2] in a line: Toxicity in telemetered Beagle dog assessed as change in body temperature up to 25 mg/kg, po. It counts as organism-based, Canis lupus familiaris. The note with it: in vivo.
Data set [3] concerns the target Neuronal acetylcholine receptor; alpha4/beta2 (Rattus norvegicus) (UniProt P09483+P12390). Briefly: In vivo receptor occupancy at alpha4beta2 nAChR in Wistar rat pretreated for 15 mins followed by non radiolabelled ZW-104 tracer treatment and measured after 45 mins by LC-MS/MS analysis. Format: functional, organism-based.
Data set [4] in a line: Oral bioavailability in Beagle dog at 3 mg/kg by LC-MS/MS analysis. It counts as ADME, organism-based, Canis lupus familiaris. The note with it: in vivo.
Data set [5] can be described thus: Half life in Wistar rat at 10 ml/kg, po or 2 ml/kg, iv measured upto 24 hrs by LC-MS/MS analysis. The note with it: in vivo. It counts as ADME, organism-based.
For data set [6], the system named is Lymphocyte. The data set can be described thus: Genotoxicity in human peripheral lymphocytes assessed as non clastogenic by chromosomal aberration assay. It counts as toxicity, cell-based.
Data set [7] addresses T1, Neuronal acetylcholine receptor; alpha4/beta2. Briefly: In vivo receptor occupancy at alpha4beta2 nAChR in Wistar rat assessed as plasma concentration pretreated for 15 mins followed by non radiolabelled ZW-104 tracer treatment and measured after 45 mins by LC-MS/MS analysis. Format: functional, organism-based.
The subject of data set [8] is Rattus norvegicus. The data set can be described thus: Antidepressant activity in Wistar rat assessed as immobility time at 3.0 mg/kg, po measured for 5 mins by forced swim test (reference value: 241.9 to 281.6 sec). Format: functional.
The target of data set [9] is T2, Solute carrier organic anion transporter family member 1B3 (Homo sapiens, UniProt Q9NPD5).
T2 sequence (Q9NPD5 whole entry): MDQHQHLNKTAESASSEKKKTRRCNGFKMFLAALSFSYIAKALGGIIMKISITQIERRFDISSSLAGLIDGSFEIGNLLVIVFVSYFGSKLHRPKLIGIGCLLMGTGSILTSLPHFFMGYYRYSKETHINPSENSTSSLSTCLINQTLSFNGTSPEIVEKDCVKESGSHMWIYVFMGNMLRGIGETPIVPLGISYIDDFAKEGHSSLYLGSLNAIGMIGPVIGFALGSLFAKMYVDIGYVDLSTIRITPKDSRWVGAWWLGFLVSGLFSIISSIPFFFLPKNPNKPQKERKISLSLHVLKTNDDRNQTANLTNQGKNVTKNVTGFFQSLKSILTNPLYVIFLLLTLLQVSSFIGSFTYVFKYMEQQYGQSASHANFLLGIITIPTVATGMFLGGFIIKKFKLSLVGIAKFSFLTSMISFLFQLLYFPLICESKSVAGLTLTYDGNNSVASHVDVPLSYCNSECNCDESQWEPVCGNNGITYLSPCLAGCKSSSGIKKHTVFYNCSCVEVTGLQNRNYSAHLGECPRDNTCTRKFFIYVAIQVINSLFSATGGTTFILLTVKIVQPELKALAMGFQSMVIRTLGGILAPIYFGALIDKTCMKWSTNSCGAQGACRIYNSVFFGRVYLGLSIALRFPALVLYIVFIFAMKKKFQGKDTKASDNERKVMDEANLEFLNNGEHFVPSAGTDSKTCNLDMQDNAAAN
Briefly: Inhibition of OATP1B3 (unknown origin).

Data set [10] addresses Neuronal acetylcholine receptor; alpha3/beta4 (Homo sapiens, UniProt P30926+P32297). The data set can be described thus: Displacement of [3H]epibatidine from human alpha3beta4 nAChR expressed in IMR32 cell membrane by microbeta scintillation counting method. It counts as cell membranes, IMR-32. A general note: Loss of bound radioactivity is the signal in a displacement assay; it reports binding, not function.

Data set [11] concerns the target T3, Cytochrome P450 1A2 (Homo sapiens, UniProt P05177).
T3 sequence (P05177 whole entry): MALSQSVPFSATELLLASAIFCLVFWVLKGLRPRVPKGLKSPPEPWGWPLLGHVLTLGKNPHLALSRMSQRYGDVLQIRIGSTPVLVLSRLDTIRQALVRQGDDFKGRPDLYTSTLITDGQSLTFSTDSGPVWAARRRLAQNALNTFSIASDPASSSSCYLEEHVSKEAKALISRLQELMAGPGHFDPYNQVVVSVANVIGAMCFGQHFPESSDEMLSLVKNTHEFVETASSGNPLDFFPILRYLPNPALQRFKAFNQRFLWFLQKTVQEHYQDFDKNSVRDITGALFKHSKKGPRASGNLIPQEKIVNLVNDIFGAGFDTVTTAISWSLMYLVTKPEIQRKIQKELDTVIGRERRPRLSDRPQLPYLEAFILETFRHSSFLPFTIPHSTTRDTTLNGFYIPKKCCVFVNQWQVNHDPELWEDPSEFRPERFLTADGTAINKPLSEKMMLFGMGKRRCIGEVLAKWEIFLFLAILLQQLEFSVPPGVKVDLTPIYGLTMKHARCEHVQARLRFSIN
Briefly: Induction of CYP1A2 (unknown origin). It counts as ADME.

Data set [12] can be described thus: Genotoxicity in Salmonella typhimurium TA98 in absence of metabolic activation. It counts as toxicity. Particulars: salmonella enterica subsp. enterica serovar typhimurium.
The nature of data set [13]: Toxicity in telemetered Beagle dog assessed as change in blood pressure up to 25 mg/kg, po. Format: organism-based, Canis lupus familiaris. Particulars: in vivo.
A short description of data set [14]: Protein binding in rat plasma assessed as unbound fraction at […] incubated for 6 hrs by LC-MS/MS analysis. Format: ADME, cell-free.

The EC50 is the concentration that produces a half-maximal response. The term bioavailability denotes the share of a dose that reaches the circulation, judged against a reference dose that is usually intravenous. Read a high bioavailability as much systemic uptake. The term half-life denotes the time needed for the level to fall by half in the phase considered. For orientation: Ki means a dissociation constant, usually derived from enzyme kinetics or from competition with a known ligand. Read a high Ki as a looser hold on the target. A word on the fraction unbound: it is the share of the substance not bound to proteins or other matrix.

T1 sequence (P09483 whole entry): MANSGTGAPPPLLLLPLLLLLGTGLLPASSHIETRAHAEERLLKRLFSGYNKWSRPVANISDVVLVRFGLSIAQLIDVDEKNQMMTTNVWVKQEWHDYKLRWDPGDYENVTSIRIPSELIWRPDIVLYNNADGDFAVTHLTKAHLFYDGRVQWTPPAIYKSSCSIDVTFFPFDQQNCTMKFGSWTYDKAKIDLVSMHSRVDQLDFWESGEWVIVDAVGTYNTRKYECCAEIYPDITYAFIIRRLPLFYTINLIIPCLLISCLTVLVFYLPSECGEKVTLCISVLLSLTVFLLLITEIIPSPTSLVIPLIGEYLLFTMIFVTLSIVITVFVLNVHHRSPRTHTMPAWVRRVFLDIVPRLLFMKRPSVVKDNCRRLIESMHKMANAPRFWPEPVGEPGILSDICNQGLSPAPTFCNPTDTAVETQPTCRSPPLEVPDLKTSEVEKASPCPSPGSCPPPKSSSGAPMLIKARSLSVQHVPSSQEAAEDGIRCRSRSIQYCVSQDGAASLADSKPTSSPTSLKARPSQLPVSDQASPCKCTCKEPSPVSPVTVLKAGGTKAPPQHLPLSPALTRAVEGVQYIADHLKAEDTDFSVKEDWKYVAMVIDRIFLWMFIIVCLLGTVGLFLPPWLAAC
T1 sequence (P12390 whole entry): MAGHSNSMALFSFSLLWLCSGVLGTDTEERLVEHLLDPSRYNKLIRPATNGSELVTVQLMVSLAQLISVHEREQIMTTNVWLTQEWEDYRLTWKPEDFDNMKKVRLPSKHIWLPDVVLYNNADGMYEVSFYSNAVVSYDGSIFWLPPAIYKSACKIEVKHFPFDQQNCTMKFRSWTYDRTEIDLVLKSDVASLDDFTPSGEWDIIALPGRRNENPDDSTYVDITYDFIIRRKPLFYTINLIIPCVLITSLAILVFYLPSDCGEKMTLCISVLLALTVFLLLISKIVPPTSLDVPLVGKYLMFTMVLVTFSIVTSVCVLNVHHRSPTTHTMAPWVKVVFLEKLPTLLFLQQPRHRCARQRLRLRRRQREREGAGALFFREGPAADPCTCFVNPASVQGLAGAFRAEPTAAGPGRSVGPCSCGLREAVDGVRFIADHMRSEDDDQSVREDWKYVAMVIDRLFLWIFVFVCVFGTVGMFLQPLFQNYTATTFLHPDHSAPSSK
Sequence of Neuronal acetylcholine receptor; alpha3/beta4 (P30926 whole entry): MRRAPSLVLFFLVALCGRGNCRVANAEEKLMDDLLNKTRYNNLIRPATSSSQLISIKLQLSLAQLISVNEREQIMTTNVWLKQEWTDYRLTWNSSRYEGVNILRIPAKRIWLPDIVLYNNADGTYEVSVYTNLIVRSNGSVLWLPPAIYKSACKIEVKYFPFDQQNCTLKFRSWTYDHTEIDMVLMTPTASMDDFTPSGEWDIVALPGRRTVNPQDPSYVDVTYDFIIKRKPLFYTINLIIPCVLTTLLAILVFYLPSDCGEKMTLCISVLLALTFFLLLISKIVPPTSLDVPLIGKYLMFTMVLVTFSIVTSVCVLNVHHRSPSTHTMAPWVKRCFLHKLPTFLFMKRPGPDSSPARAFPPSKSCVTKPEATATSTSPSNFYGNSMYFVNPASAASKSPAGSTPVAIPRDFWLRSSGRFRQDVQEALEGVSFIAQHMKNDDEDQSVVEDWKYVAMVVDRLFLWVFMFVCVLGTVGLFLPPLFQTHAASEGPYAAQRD
Sequence of Neuronal acetylcholine receptor; alpha3/beta4 (P32297 whole entry): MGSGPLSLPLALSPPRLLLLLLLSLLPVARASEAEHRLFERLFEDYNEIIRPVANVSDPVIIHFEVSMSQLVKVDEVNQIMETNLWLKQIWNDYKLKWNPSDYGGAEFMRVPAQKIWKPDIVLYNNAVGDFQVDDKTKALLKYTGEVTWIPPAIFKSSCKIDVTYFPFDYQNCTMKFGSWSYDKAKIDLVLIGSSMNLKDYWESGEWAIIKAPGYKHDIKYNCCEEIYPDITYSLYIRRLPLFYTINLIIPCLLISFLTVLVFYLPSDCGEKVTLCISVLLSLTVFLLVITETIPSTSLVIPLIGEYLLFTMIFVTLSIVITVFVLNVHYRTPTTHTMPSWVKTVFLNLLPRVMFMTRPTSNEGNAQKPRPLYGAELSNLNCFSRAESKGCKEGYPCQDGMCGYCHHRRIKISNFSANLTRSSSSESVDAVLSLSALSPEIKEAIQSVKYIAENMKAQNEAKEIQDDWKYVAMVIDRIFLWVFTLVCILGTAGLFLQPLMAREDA

Take `Cl.Clc1ccc(OC[C@@H]2C[C@H]3C[C@H]3N2)cn1`: the figures for the EC50 in data set [1] and in data set [7] were 334 µM and 259 µM, respectively. The Activity result in [2] was “Non-Toxic”; in data set [3] it was “Dose-dependent effect”; in [6] it was “Non-Toxic”; in [11] it was “Not Active”; in data set [12], “Non-Toxic”; in data set [13], “Non-Toxic”. For the same compound, in [3], the ED50 stood at 1.61 µM. In addition, in [4], the bioavailability turned out to be 83%. Further, in data set [5], the half-life is 3.34 h. In addition, the Time in data set [8] is 155.9 s. Moreover, the “inhibition (INH)” value in data set [9] was “Not Active”. For the same compound, the Ki in [10] is > 10 µM. For the same compound, the fraction unbound at 6 h in data set [14] was determined as 0.31.

For the origin of these results see ChEMBL document CHEMBL4602676, “Discovery and Development of 3-(6-Chloropyridine-3-yloxymethyl)-2-azabicyclo[3.1.0]hexane Hydrochloride (SUVN-911): A Novel, Potent, Selective, and Orally Active Neuronal Nicotinic Acetylcholine α4β2 Receptor Antagonist for the Treatment of Depression” (J Med Chem, 2020).
